# Assay results as given in US8309726B2, “Substituted piperazine compounds of formula 8” (Council of Scientific & Industrial Research, priority 2007, dated 2012).
# What was measured:
# calf thymus (CT) DNA = assay: Thermal denaturation studies with duplex-form calf thymus DNA; format: binding; conditions: for ΔTm (° C.) after incubation at 37° C. for 0 h / ΔTm (° C.) after incubation at 37° C. for 18 h / ΔTm (° C.) after incubation at 37° C. for 36 h: [ANCD]/[DNA] molar ratio 1:5, CT-DNA 100 μM, ligand 20 μM, sodium phosphate buffer pH 7.00; for ΔTm (° C.) after incubation at 37° C. for 0 h: 0 h at 37° C.; for ΔTm (° C.) after incubation at 37° C. for 18 h: 18 h at 37° C.; for ΔTm (° C.) after incubation at 37° C. for 36 h: 36 h at 37° C.; for Course of ΔTm over incubation at 0 hr, 18 hr and 36 hr: incubation at 37° C., [ANCD]/[DNA] 1:5
# Experimental: Compounds were subjected to thermal denaturation studies with duplex-form calf thymus DNA (CT-DNA) using an adaptation of a reported procedure. Working solutions in aqueous buffer (10 mM NaH2PO4/Na2HPO4, 1 mM Na2EDTA, pH 7.00+/−0.01) containing CT-DNA (100 μM in phosphate) and the PBD (20 μM) were prepared by addition of concentrated ANCD solutions in DMSO to obtain a fixed [ANCD]/[DNA] molar ratio of 1:5. The DNA-ANCD solutions were incubated at 37° C. for 0, 18, and 36 h prior to analysis. Samples were monitored at 260 nm using a Beckman DU-7400 spectrophotometer fitted with high performance temperature controller, and heating was applied at 1° C. min^−1 in the 40-90° C. range. DNA helix coil transition temperatures (Tm) were obtained from the maxima in the (dA260)/dT derivative plots. Results are given as the mean+/−standard deviation from three determinations and are corrected for the effects of DMSO co-solvent using a linear correction term. Drug-induced alterations in DNA melting behaviour are given by: ΔTm=Tm (DNA+ANCD)−Tm (DNA alone), where the Tm value for the ANCD-free CT-DNA is 69.0+/−0.01.
# human tumour cell lines = assay: In vitro anticancer activity against sixty human tumour cell lines (NCI, SRB assay); format: cell-based; conditions: for Log10LC50 mean graph midpoint (MG_MID): 50% cell death; for Log10LC50 mean graph midpoint (MG_MID) / Log10GI50 mean graph midpoint (MG_MID) / Log10TGI50 mean graph midpoint (MG_MID): 48 h continuous drug exposure, SRB assay; for Log10GI50 mean graph midpoint (MG_MID): 50% cell growth inhibition; for GI50: Homo sapiens; for antiproliferative activity: against most of the tested cell lines; for Log10TGI50 mean graph midpoint (MG_MID): total cell growth inhibition
# Experimental: (§1) In vitro evaluation of cytotoxic activity: Compounds were evaluated for in vitro anticancer activity against sixty human tumour cells derived from nine cancer types (colon, prostate, oral, lung, cervix and breast cancer) as shown in (Table 1, 2 and 3) 8b, 8c, 8d, and 8e, were evaluated for in vitro anticancer activity against sixty human tumour cells derived from nine cancer types (leukemia, non-small-cell lung, colon, CNS, melanoma, ovarian, prostate, and breast cancer) as shown in (Table 2 and 3). For the compound, dose response curves for each cell line were measured at a minimum of five concentrations at 10 fold dilutions. A protocol of 48 h continuous drug exposure was used and a sulforhodamine B (SRB) protein assay was used to estimate cell viability or growth. The concentration causing 50% cell growth inhibition (GI50), total cell growth inhibition (TGI 0% growth) and 50% cell death (LC50, −50% growth) compared with the control was calculated. The mean graph midpoint values of log10 TGI and log10 LC50 as well as log10 GI50 for 8a, 8b, 8c, 8d, and 8e, are listed in (Table 2 and 3).
# (§2) Each cancer type represents the average of six to nine different cancer cell lines. The compounds 8a, 8b, 8c, 8d, 8e and 8f were evaluated for in vitro anticancer activity against sixty human tumour cells derived from nine cancer types (leukemia, colon, prostate, renal melanoma CNS, lung, cervix and breast cancer) as shown in Table 3. Compounds 8b, 8c, 8d and 8e show promising cytotoxicity against some cancer cell lines (Table 2). Compounds 8b, 8c, 8d and 8e have been evaluated for their in vitro cytotoxicity in selected human cancer cell lines of colon (Colo205), lung (Hop-62), cervix (SiHa), prostate (DU145, PC3), oral (DWD, HT1080), and breast (MCF7, Zr-75-1) origin. A protocol of 48 h continuous drug exposure has been used and an […] has been used to estimate cell viability or growth. The results are expressed as percent of cell growth determined relative to that of untreated control cells. […] In the breast cancer panel, the growth of BT-549, MCF-7 cell lines are 10.3, and 17.6. In the prostate cancer panel, the growth of DU-145, PC-3 cell lines are 11.3, and 19.2. The GI50 values of compound In the CNS cancer panel, the growth of SF-539, SNB-75 cell lines are […]. […] In vitro cytotoxicity of compounds 8a, and 8b in selected cancer cell lines has been illustrated in Table 3. The average GI50 values for each cancer panel of compounds 8b, 8c, 8d and 8e have been illustrated in above Table 2 and 3
# [1] = tested on: Leukemia cancer cell lines; assay: In vitro cytotoxicity, leukemia panel; format: cell-based; conditions: Homo sapiens, average of six to nine different cancer cell lines, 48 h, SRB, read-out: Log GI50 (concentration in mol/L causing 50% growth inhibition) (converted)
# Experimental: as §1, §2
# [2] = tested on: Nonsmall-cell-lung cancer cell lines; assay: In vitro cytotoxicity, non-small-cell lung panel; format: cell-based; conditions: Homo sapiens, average of six to nine different cancer cell lines, 48 h, SRB, read-out: Log GI50 (concentration in mol/L causing 50% growth inhibition) (converted)
# Experimental: as §1, §2
# Colon cancer cell lines = assay: In vitro cytotoxicity, colon panel; format: cell-based; conditions: Homo sapiens, average of six to nine different cancer cell lines, 48 h, SRB, read-out: Log GI50 (concentration in mol/L causing 50% growth inhibition) (converted)
# Experimental: as §1, §2
# CNS cancer cell lines = assay: In vitro cytotoxicity, CNS panel; format: cell-based; conditions: Homo sapiens, average of six to nine different cancer cell lines, 48 h, SRB, read-out: Log GI50 (concentration in mol/L causing 50% growth inhibition) (converted)
# Experimental: as §1, §2
# [3] = tested on: Melanoma cancer cell lines; assay: In vitro cytotoxicity, melanoma panel; format: cell-based; conditions: Homo sapiens, average of six to nine different cancer cell lines, 48 h, SRB, read-out: Log GI50 (concentration in mol/L causing 50% growth inhibition) (converted)
# Experimental: as §1, §2
# [4] = tested on: Ovarian cancer cell lines; assay: In vitro cytotoxicity, ovarian panel; format: cell-based; conditions: Homo sapiens, average of six to nine different cancer cell lines, 48 h, SRB, read-out: Log GI50 (concentration in mol/L causing 50% growth inhibition) (converted)
# Experimental: as §1, §2
# Renal cancer cell lines = assay: In vitro cytotoxicity, renal panel; format: cell-based; conditions: Homo sapiens, average of six to nine different cancer cell lines, 48 h, SRB, read-out: Log GI50 (concentration in mol/L causing 50% growth inhibition) (converted)
# Experimental: as §1, §2
# [5] = tested on: Prostate cancer cell lines; assay: In vitro cytotoxicity, prostate panel; format: cell-based; conditions: Homo sapiens, average of six to nine different cancer cell lines, 48 h, SRB, read-out: Log GI50 (concentration in mol/L causing 50% growth inhibition) (converted)
# Experimental: as §1, §2
# Breast cancer cell lines = assay: In vitro cytotoxicity, breast panel; format: cell-based; conditions: Homo sapiens, average of six to nine different cancer cell lines, 48 h, SRB, read-out: Log GI50 (concentration in mol/L causing 50% growth inhibition) (converted)
# Experimental: as §1, §2
# [6] = sixty cell lines in nine cell panels
Compound,ΔTm (° C.) after incubation at 37° C. for 0 h (calf thymus (CT) DNA) [°C],ΔTm (° C.) after incubation at 37° C. for 18 h (calf thymus (CT) DNA) [°C],ΔTm (° C.) after incubation at 37° C. for 36 h (calf thymus (CT) DNA) [°C],"Course of ΔTm over incubation at 0 hr, 18 hr and 36 hr (calf thymus (CT) DNA)",Log10LC50 mean graph midpoint (MG_MID) (human tumour cell lines),Log10GI50 mean graph midpoint (MG_MID) (human tumour cell lines),GI50 (human tumour cell lines; [6]) [µM],antiproliferative activity (human tumour cell lines),Log10TGI50 mean graph midpoint (MG_MID) (human tumour cell lines),GI50 [1] [µM],GI50 [2] [µM],GI50 (Colon cancer cell lines) [µM],GI50 (CNS cancer cell lines) [µM],GI50 [3] [µM],GI50 [4] [µM],GI50 (Renal cancer cell lines) [µM],GI50 [5] [µM],GI50 (Breast cancer cell lines) [µM],GI50 (human tumour cell lines; fifty-seven cell lines in nine cancer cell panels) [µM]
"COc1cc(C(=O)N2CCN(c3ccccc3OC)CC2)c(N)cc1OCc1ccccc1 [Compound 8a, [2-amino-4-(benzyloxy)-5-methoxyphenyl][4-(2-methoxyphenyl)piperazino]methanone]",1.2,1.7,2.2,gradually increased,−4.19,−5.47,< 20,nanomolar to low micromolar concentrations,−5.24,5.5,3.63,8.51,5.89,4.47,5.75,5.62,6.61,3.39,–
"COc1cc(C(=O)N2CCN(c3ncccn3)CC2)c(N)cc1OCc1ccccc1 [Compound 8c, [2-amino-4-(benzyloxy)-5-methoxyphenyl][4-(2-pyrimidinyl)piperazino]methanone]",1.4,1.6,2.3,gradually increased,−4.47,−5.47,–,nanomolar to low micromolar concentrations,−5.47,5.5,7.24,3.39,5.89,1.78,5.75,5.62,16.6,6.76,–
"COc1cc(C(=O)NC2c3ccccc3-c3ccccc32)c(N)cc1OCc1ccccc1 [Compound 8e, N1-(9H-9-fluorenyl)-2-amino-4-(benzyloxy)-5-methoxybenzamide]",1.9,2.3,2.8,gradually increased,−4.19,−6.47,< 20,nanomolar to low micromolar concentrations,−6.06,4.27,1.38,1.7,5.5,1.78,10,15.1,0.355,≤ 0.01,< 10
"COc1cc(C(=O)N2CCN(c3ccccc3OC)CC2)c(NC(=O)c2cnccn2)cc1OCc1ccccc1 [Compound 8f, (4-(Benzyloxy)-5-methoxy-2-(pyrazine-2-carbamido)phenyl)(4-(2-methoxyphenyl)piperazin-1-yl)methanone]",1.3,2.1,3.0,gradually increased,–,–,–,–,–,–,–,–,–,–,–,–,–,–,–
"COc1cc(C(=O)Nc2ccc(S(=O)(=O)c3ccc(NC(=O)c4cc(OC)c(OCc5ccccc5)cc4N)cc3)cc2)c(N)cc1OCc1ccccc1 [Compound 8h, N1-4-[(4-[2-amino-4-(benzyloxy)-5-methoxybenzoyl]aminophenyl)sulfonyl]phenyl-2-amino-4-(benzyloxy)-5-methoxybenzamide]",1.5,2.3,2.4,gradually increased,–,–,–,–,–,–,–,–,–,–,–,–,–,–,–
"COc1cc(C(=O)N2CCN(c3ccccc3OC)CC2)c(N)cc1OCCCN1CCN(c2ccccc2OC)CC1 [Compound 11, (2-amino-5-methoxy-4-3-[4-(2-methoxyphenyl)piperazino]propoxyphenyl)[4-(2-methoxyphenyl)piperazino]methanone]",1.4,2.1,2.1,gradually increased,–,–,–,–,–,–,–,–,–,–,–,–,–,–,–
"COc1cc2c(cc1O)N=CC1CCCN1C2=O (stereo not drawn) [DC-81, reference compound]",0.3,0.7,–,–,–,–,–,–,–,–,–,–,–,–,–,–,–,–,–
{2-amino-5-(methyloxy)-4[(phenylmethyl)oxy]phenyl}[4-({2-amino-5-(methyloxy)-4-[(phenylmethyl)oxy]phenyl}carbonyl)hexahydro-1-piperazinyl]methanone [Compound 8g],1.6,2.6,2.9,gradually increased,–,–,–,–,–,–,–,–,–,–,–,–,–,–,–
